From patent publication US20170305922A1, “CARM1 INHIBITORS AND USES THEREOF” (Epizyme, Inc., priority 2014, published 2017) come the findings set out here.

For one assay, the target named is T1, Human CARM1 (PRMT4) (Homo sapiens, UniProt Q86X55).
T1 construct: Flag-CARM1-His was eluted with 200 ug/ml FLAG peptide in buffer A; made in house; host or cells: HEK 293F cells infected with recombinant baculovirus (pFastBacMam)
T1 sequence (Q86X55 1-585 isoform Q86X55-1): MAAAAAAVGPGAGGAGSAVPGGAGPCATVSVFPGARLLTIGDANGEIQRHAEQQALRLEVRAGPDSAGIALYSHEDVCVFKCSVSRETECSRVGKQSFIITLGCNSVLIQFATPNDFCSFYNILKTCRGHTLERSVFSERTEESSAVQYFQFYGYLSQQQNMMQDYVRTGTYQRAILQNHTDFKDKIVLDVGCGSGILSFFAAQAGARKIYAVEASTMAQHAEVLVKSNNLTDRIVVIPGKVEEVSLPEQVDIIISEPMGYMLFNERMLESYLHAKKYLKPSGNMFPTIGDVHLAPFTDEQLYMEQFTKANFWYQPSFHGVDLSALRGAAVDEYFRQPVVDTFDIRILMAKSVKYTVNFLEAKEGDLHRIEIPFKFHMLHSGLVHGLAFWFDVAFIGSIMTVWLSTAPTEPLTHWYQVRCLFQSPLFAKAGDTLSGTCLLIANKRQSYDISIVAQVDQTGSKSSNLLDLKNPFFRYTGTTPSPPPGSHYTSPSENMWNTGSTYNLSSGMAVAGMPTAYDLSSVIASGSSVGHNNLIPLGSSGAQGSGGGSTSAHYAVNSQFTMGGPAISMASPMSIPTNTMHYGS
Description: CARM1 enzyme assay on peptide substrates (3H-SAM Flashplate). Particulars: Biochemical assay; CARM1 0.25 nM, 3H-SAM 30 nM, peptide 250 nM; read-out: Biochem IC50. The source says:
S-adenosylmethionine (SAM), S-adenosylhomocysteine (SAH), bicine, Tween20, dimethylsulfoxide (DMSO), bovine skin gelatin (BSG), sodium butyrate and Tris(2-carboxyethyl)phosphine hydrochloride solution (TCEP) were purchased from Sigma-Aldrich at the highest level of purity possible. ^3H-SAM was purchase from American Radiolabeled Chemicals with a specific activity of 80 Ci/mmol. 384-well streptavidin Flashplates were purchased from PerkinElmer.
Peptide representative of human histone H3 residues 16-30 was synthesized with an N-terminal linker-affinity tag motif and a C-terminal amide cap by 21st Century Biochemicals. […] The sequence was Biot-Ahx-[…]-amide and contained a monomethylated arginine at position 26 (SEQ ID NO.:1).
The gene sequence encoding isoform1 containing a deletion of amino acids 539-561 was amplified subsequently and subcloned into pFastBacMam (Viva Biotech).
Recombinant baculovirus were generated according to Bac-to-Bac kit instructions (Life Technologies). Protein over-expression was accomplished by infecting exponentially growing HEK 293F cell culture at 1.3×10^6 cell/ml with virus (MOI=10) in the presence of 8 mM sodium butyrate. Infections were carried out at 37° C. for 48 hours, harvested by centrifugation, and stored at −80° C. for purification.
Column was washed with 500 mM NaCl in buffer A and Flag-CARM1-His was eluted with 200 ug/ml FLAG peptide in buffer A. Pooled fractions were dialyzed in 20 mM Tris, 150 mM NaCl, 5% glycerol and 1 mM DTT, pH 7.8.
The assays were all performed in a buffer consisting of 20 mM Bicine (pH=7.6), 1 mM TCEP, 0.005% BSG, and 0.002% Tween 20, prepared on the day of use. Compounds in 100% DMSO (1 ul) were spotted into a polypropylene 384-well V-bottom plates (Greiner) using a Platemate Plus outfitted with a 384-channel head (Thermo Scientific). DMSO (1 ul) was added to Columns 11, 12, 23, 24, rows A-H for the maximum signal control and 1 ul of SAH, a known product and inhibitor of CARM1, was added to columns 11, 12, 23, 24, rows I-P for the minimum signal control. A cocktail (40 ul) containing the CARM1 enzyme was added by Multidrop Combi (Thermo-Fisher). The compounds were allowed to incubate with CARM1 for 30 min at room temperature, then a cocktail (10 ul) containing ^3H-SAM and peptide was added to initiate the reaction (final volume=51 ul). The final concentrations of the components were as follows: CARM1 was 0.25 nM, ^3H-SAM was 30 nM, peptide was 250 nM, SAH in the minimum signal control wells was 1 mM, and the DMSO concentration was 2%. The assays were stopped by the addition of non-radiolabeled SAM (10 ul) to a final concentration of 300 uM, which dilutes the ^3H-SAM to a level where its incorporation into the peptide substrate is no longer detectable. 50 ul of the reaction in the 384-well polypropylene plate was then transferred to a 384-well Flashplate and the biotinylated peptides were allowed to bind to the streptavidin surface for at least 1 hour before being washed once with 0.1% Tween20 in a Biotek ELx405 plate washer. The plates were then read in a PerkinElmer TopCount plate reader to measure the quantity of ^3H-labeled peptide bound to the Flashplate surface, measured as disintegrations per minute (dpm) or alternatively, referred to as counts per minute (cpm).
where dpm=disintegrations per minute, cmpd=signal in assay well, and min and max are the respective minimum and maximum signal controls.
where top and bottom are the normally allowed to float, but may be fixed at 100 or 0 respectively in a 3-parameter fit. The Hill Coefficient normally allowed to float but may also be fixed at 1 in a 3-parameter fit. Y is the % inhibition and X is the compound concentration.

Assay [1] relates to asymmetric di-methyl PABP1 in RKO cells. Description: RKO methylation assay: In Cell Western (ICW) for asymmetric di-methyl PABP1 (PABP1me2a). Particulars: Homo sapiens, RKO, 48 h, Cellular-based (PABP1me2a) ICW (In Cell Western) assay. The source says: RKO adherent cells were purchased from ATCC (American Type Culture Collection), Manassas, Va., USA. DMEM/Glutamax medium, penicillin-streptomycin, heat inactivated fetal bovine serum, 0.05% trypsin and D-PBS were purchased from Life Technologies, Grand Island, N.Y., USA. Odyssey blocking buffer, 800CW goat anti-rabbit IgG (H+L) antibody, and Licor Odyssey infrared scanner were purchased from Licor Biosciences, Lincoln, Nebr., USA. Asymmetric di-methyl PABP1 antibody was purchased from Cell Signaling Technology, Danvers, Mass., USA. Methanol was purchased from VWR, Franklin, Mass., USA. 10% Tween 20 was purchased from KPL, Inc., Gaithersburg, Md., USA. Paraformaldehyde (PFA) was purchased from EM Sciences. DRAQ5 was purchased from Biostatus Limited, Leicestershire, UK.
RKO adherent cells were maintained in growth medium (DMEM/Glutamax medium supplemented with 10% v/v heat inactivated fetal bovine serum and 100 units/mL penicillin-streptomycin) and cultured at 37° C. under 5% CO2.
Cell treatment, In Cell Western (ICW) for detection of asymmetric di-methyl PABP1 and DNA content: RKO cells were seeded in assay medium at a concentration of 30,000 cells per mL to a poly-D-lysine coated 384 well culture plate (BD Biosciences 356697) with 50 μL per well. Compound (100 nL) from a 96-well source plate was added directly to 384 well cell plate. Plates were incubated at 37° C., 5% CO2 for 48 hours. After two days of incubation, plates were brought to room temperature outside of the incubator for ten minutes and blotted on paper towels to remove cell media. Cells were fixed for 20 minutes at room temperature by adding 50 ul of 8% PFA followed by aspiration of supernatant with the Biotek EL406 plate washer. Cells were then permeabilized by addition of 50 μL of ice cold 100% methanol directly to each well and incubated for 30 min at room temperature. After 30 min, plates were transferred to a Biotek EL406 plate washer and washed 2 times with 100 μL per well of wash buffer (1×PBS). Next 60 μL per well of Odyssey blocking buffer (Odyssey Buffer with 0.1% Tween 20 (v/v)) were added to each plate and incubated 1 hour at room temperature. Blocking buffer was removed and 20 μL per well of primary antibody was added (asymmetric-methyl PABP1) diluted 1:400 in Odyssey buffer with 0.1% Tween 20 (v/v)) and plates were incubated overnight (16 hours) at 4° C. Plates were washed 5 times with 100 μL per well of wash buffer. Next 20 μL per well of secondary antibody was added (1:800 800CW goat anti-rabbit IgG (H+L) antibody, 1:2000 DRAQ5 in Odyssey buffer with 0.1% Tween 20 (v/v)) and incubated for 1 hour at room temperature. The plates were washed 5 times with 100 μL per well wash buffer then 2 times with 100 μL per well of water. Plates were allowed to dry at room temperature then imaged on the Licor Odyssey machine which measures integrated intensity at 700 nm and 800 nm wavelengths. Both 700 and 800 channels were scanned.
First, the ratio for each well was determined by:
Each plate included fourteen control wells of DMSO only treatment (minimum inhibition) as well as fourteen control wells for maximum inhibition treated with 20 μM of a reference compound. The average of the ratio values for each control type was calculated and used to determine the percent […] for each test well in the plate. Reference compound was serially diluted three-fold in DMSO for a total of nine test concentrations, beginning at 20 μM.
Percent inhibition was determined and IC50 curves were generated using triplicate wells per concentration of compound.

`CNC[C@@H](O)COc1ccc(Cl)c(-c2nc(-c3c(C)noc3C)c(C)c(N3CC4(CCN(C(=O)N(C)C)C4)C3)n2)c1` [Example 48]: the IC50 on Human CARM1 (PRMT4) worked out at 12.7 nM; in assay [1], 238 nM.

With `CNC[C@@H](O)COc1ccc(Cl)c(-c2nc(-c3c(C)noc3C)c(C)c(N3CC4(CCN(S(C)(=O)=O)C4)C3)n2)c1` [Example 49], the half-maximal inhibitory concentration (IC50) is 7.7 nM at Human CARM1 (PRMT4) and 399 nM in assay [1].

In the case of `CNC[C@@H](O)COc1ccc(Cl)c(-c2nc(-c3c(C)noc3C)c(C)c(N3CC4(CCN(C5COC5)C4)C3)n2)c1` [Example 50], the half-maximal inhibitory concentration (IC50) was found to be 8.8 nM at Human CARM1 (PRMT4) and 155 nM in assay [1].

As for `CNC[C@@H](O)COc1ccc(Cl)c(-c2nc(-c3c(C)noc3C)c(C)c(N3CC4(CCN(C(C)=O)CC4)C3)n2)c1` [Example 51], the IC50 at Human CARM1 (PRMT4) was determined as 10.8 nM; in assay [1], 356 nM.

For `CNC[C@@H](O)COc1ccc(Cl)c(-c2nc(-c3c(C)noc3C)c(C)c(N3CC4(CCN(S(C)(=O)=O)CC4)C3)n2)c1` [Example 52], the IC50 turned out to be 7.3 nM on Human CARM1 (PRMT4) and 230 nM in assay [1].

Take `CNC[C@@H](O)COc1ccc(Cl)c(-c2nc(-c3c(C)noc3C)c(C)c(N3C[C@H]4CN(C(=O)OC)C[C@H]4C3)n2)c1` [Example 53]: the IC50 at Human CARM1 (PRMT4) was determined as 5.3 nM; in assay [1], 198 nM.

With `CNC[C@@H](O)COc1ccc(Cl)c(-c2nc(-c3c(C)noc3C)c(C)c(N3CC4=C(CN(CC(F)F)C4)C3)n2)c1` [Example 54], the values for the IC50 (on Human CARM1 (PRMT4); in assay [1]) were 4.4 nM and 45 nM, respectively.

As to `CNC[C@@H](O)COc1ccc(Cl)c(-c2nc(-c3c(C)noc3C)c(C)c(N3CC4=C(CN(C(=O)OC)C4)C3)n2)c1` [Example 55], the figures for the half-maximal inhibitory concentration (IC50) (on Human CARM1 (PRMT4); in assay [1]) were 3.6 nM and 13 nM, respectively.

Take `CNC[C@@H](O)COc1ccc(F)c(-c2nc(-c3c(C)noc3C)c(C)c(N3CC4(CCC(F)CC4)C3)n2)c1` [Example 56]: the figures for the IC50 (on Human CARM1 (PRMT4); in assay [1]) were 3.8 nM and 113 nM, respectively.

Take `CNC[C@@H](O)COc1ccc(F)c(-c2nc(-c3c(C)noc3C)c(C)c(N3CC4(CC=CCC4)C3)n2)c1` [Example 57]: the IC50 was 3.4 nM on Human CARM1 (PRMT4) and 276 nM in assay [1].

Turning to `CNC[C@@H](O)COc1ccc(Cl)c(-c2nc(-c3c(Cl)cnn3C)c(C)c(N3Cc4cccnc4C3)n2)c1` [Example 58], the IC50 on Human CARM1 (PRMT4) turned out to be 1.4 nM; in assay [1], 73 nM.

As for `CNC[C@@H](O)COc1cccc(-c2nc(-c3c(C)cnn3C)c(C)c(N3Cc4cccnc4C3)n2)c1` [Example 59], the results for the IC50 (at Human CARM1 (PRMT4); in assay [1]) were 1.8 nM and 292 nM, respectively.

For `CNC[C@@H](O)COc1cccc(-c2nc(-c3c(C)cnn3C)c(C)c(N3Cc4cncnc4C3)n2)c1` [Example 60], the IC50 turned out to be 3.9 nM at Human CARM1 (PRMT4) and 389 nM in assay [1].

As to `CNC[C@@H](O)COc1cccc(-c2nc(-c3c(C)cnn3C)c(C)c(N3CC4(CCN(C(=O)OC)CC4)C3)n2)c1` [Example 61], the half-inhibitory concentration (IC50) on Human CARM1 (PRMT4) is 13.7 nM; in assay [1], 874 nM.

For `CNC[C@@H](O)COc1ccc(Cl)c(-c2nc(-c3c(C)noc3C)c(C)c(N3CC4(CN(CC(F)F)C4)C3)n2)c1` [Example 62], the values for the half-inhibitory concentration (IC50) (on Human CARM1 (PRMT4); in assay [1]) were 64.7 nM and 526 nM, respectively.

Regarding `CNC[C@@H](O)COc1ccc(Cl)c(-c2nc(-c3c(C)noc3C)c(C)c(N3CC4(CCN(C(C)=O)C4)C3)n2)c1` [Example 63], the half-inhibitory concentration (IC50) at Human CARM1 (PRMT4) came out at 11 nM; in assay [1] it was 2060 nM.

As to `CNC[C@@H](O)COc1ccc(Cl)c(-c2nc(-c3c(C)noc3C)c(C)c(N3CC4(CCN(C5COC5)CC4)C3)n2)c1` [Example 64], the half-maximal inhibitory concentration (IC50) at Human CARM1 (PRMT4) was found to be 11 nM; in assay [1] it was 111 nM.

With `CNC[C@@H](O)COc1ccc(Cl)c(-c2nc(-c3c(C)noc3C)c(C)c(N3C[C@]4(C)CN(C(=O)OC)C[C@]4(C)C3)n2)c1` [Example 65], the IC50 on Human CARM1 (PRMT4) is 7.8 nM; in assay [1] it was 234 nM.

Consider `CNC[C@@H](O)COc1ccc(Cl)c(-c2nc(-c3c(C)noc3C)c(C)c(N3Cc4nc(C)n(C)c(=O)c4C3)n2)c1` [Example 66], for which the results for the IC50 (on Human CARM1 (PRMT4); in assay [1]) were 3.7 nM and 261 nM, respectively.
